Measured values from PMC7667638 (Journal of Medicinal Chemistry, 2020).
Read-outs that look alike come from different tables or passages of the source.

Key:
hNaV1.4 [1] = molecular target: T1, hNaV1.4 (Homo sapiens, UniProt P35499); test: cell-based; type: cell-based
hNaV1.7 [2] = molecular target: T2, hNaV1.7 (Homo sapiens, UniProt Q15858); test: cell-based; type: cell-based
hNaV1.4 [3] = molecular target: T1, hNaV1.4; test: cell-based; details: for IC50: SEM
hNaV1.7 [4] = molecular target: T2, hNaV1.7; test: cell-based; details: SEM
hNaV1.4 [5] = molecular target: T1, hNaV1.4; details: cited from earlier work
hNaV1.7 [6] = molecular target: T2, hNaV1.7; details: SEM; cited from earlier work
rNaV1.4 = details: read-out: IC50 (nM ± SEM), rat NaV1.4; cited from earlier work

T2 sequence (Q15858 whole entry, looked up): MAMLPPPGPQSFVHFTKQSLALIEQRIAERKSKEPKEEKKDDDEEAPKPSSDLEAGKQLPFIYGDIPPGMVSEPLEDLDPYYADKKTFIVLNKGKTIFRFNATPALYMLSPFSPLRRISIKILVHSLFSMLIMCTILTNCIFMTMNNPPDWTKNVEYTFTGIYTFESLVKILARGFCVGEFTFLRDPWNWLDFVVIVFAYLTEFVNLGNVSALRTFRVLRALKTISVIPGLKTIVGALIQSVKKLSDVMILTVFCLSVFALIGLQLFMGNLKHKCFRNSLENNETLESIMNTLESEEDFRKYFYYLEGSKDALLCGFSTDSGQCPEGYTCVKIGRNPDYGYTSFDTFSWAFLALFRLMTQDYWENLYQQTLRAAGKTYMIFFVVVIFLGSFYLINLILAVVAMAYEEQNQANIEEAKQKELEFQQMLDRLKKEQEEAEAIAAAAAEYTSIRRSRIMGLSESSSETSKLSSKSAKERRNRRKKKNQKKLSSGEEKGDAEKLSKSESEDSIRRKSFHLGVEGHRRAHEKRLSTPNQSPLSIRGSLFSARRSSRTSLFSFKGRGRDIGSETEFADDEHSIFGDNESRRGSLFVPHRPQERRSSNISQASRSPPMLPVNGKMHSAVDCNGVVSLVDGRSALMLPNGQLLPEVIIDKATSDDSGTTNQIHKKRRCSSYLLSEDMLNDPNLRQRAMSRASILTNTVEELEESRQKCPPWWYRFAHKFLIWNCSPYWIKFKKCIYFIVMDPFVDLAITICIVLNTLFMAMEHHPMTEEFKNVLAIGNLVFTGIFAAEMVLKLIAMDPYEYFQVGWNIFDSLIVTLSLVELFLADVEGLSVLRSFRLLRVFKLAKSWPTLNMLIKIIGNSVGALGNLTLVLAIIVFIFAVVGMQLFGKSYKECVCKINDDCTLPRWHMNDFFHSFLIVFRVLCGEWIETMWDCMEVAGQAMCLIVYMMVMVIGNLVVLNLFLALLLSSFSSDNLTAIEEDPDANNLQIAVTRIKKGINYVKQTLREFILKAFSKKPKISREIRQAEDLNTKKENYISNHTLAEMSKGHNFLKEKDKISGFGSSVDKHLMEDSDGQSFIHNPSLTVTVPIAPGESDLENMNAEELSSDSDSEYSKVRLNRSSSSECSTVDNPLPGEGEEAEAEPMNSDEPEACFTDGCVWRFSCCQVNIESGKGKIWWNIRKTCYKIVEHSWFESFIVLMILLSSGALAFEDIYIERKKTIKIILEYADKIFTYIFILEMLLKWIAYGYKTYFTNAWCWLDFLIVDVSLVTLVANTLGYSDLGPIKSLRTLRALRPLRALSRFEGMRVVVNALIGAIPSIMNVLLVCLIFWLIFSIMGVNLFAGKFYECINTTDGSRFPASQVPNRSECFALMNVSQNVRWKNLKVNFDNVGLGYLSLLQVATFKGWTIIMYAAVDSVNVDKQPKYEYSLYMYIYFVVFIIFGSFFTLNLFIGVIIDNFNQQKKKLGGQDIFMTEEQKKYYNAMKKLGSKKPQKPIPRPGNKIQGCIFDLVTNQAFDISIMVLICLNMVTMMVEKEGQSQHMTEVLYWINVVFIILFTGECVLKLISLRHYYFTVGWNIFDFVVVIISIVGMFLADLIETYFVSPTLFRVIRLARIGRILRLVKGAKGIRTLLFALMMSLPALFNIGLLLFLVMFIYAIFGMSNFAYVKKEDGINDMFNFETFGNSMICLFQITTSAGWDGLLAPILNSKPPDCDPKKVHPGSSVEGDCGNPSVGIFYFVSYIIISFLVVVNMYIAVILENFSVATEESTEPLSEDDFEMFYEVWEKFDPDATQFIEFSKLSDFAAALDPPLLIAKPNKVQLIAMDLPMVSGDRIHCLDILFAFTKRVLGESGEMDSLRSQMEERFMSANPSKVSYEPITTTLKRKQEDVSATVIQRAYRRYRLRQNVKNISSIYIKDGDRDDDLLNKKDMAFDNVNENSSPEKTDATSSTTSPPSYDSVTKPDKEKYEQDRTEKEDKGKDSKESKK
T1 sequence (P35499 whole entry, looked up): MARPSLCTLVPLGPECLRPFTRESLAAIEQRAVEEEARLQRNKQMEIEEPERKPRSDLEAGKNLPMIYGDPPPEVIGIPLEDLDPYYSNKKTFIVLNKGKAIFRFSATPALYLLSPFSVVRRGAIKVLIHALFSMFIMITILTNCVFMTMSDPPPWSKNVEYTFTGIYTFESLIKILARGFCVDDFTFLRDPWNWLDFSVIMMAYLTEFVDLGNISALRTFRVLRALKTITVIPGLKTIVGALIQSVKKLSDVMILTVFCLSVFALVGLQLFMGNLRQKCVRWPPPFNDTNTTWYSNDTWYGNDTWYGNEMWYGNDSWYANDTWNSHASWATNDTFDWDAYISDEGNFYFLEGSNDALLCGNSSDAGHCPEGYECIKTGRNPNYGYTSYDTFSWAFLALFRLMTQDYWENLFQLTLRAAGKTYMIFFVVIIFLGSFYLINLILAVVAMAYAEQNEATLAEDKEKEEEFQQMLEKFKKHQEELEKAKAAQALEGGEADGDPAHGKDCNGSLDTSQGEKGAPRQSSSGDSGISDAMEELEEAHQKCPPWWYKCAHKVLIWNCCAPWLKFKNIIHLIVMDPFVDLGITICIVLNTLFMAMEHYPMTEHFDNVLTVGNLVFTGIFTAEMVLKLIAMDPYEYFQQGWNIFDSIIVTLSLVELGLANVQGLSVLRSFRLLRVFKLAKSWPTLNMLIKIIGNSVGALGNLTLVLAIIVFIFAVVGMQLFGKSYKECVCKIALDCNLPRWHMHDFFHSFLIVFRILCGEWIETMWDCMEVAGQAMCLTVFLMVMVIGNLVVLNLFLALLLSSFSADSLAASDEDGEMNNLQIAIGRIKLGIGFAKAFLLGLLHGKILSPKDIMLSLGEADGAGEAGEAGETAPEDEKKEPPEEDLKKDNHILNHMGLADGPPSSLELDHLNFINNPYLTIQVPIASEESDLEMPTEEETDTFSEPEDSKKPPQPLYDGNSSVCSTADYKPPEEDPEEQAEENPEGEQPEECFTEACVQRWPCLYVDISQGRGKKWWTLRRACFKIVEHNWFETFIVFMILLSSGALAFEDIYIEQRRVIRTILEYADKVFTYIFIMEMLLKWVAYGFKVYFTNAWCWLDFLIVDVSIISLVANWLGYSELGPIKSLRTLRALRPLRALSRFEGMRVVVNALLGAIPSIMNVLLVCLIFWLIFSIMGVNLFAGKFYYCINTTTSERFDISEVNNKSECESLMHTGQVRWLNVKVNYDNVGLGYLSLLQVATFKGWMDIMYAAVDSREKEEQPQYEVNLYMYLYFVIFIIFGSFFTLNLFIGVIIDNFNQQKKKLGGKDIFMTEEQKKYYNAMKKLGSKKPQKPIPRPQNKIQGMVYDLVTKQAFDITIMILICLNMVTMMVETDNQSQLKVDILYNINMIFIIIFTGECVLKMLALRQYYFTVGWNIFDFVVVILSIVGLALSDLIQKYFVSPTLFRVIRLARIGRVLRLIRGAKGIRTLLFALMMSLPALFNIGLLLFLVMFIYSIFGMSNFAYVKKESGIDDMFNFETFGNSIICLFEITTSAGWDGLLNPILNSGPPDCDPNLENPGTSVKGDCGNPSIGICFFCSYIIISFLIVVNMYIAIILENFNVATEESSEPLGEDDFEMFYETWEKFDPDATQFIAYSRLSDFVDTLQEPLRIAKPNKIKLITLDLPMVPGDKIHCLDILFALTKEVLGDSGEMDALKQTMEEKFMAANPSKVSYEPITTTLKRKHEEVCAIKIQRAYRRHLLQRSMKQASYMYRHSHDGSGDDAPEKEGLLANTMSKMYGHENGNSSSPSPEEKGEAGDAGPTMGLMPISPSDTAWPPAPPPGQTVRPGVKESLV

## [N-]=[N+]=NCCCC[C@H](N)C(=O)N[C@H]1CSSC[C@@H]2NC(=O)[C@H](CCCNC(=N)N)NC(=O)[C@H](CO)NC(=O)[C@H](Cc3c[nH]cn3)NC(=O)[C@H](CC(=O)O)NC(=O)[C@H](CCCNC(=N)N)NC(=O)[C@@H]3CSSC[C@H](NC1=O)C(=O)N[C@@H](CC(N)=O)C(=O)N[C@@H](CSSC[C@@H](C(N)=O)NC2=O)C(=O)N[C@@H](CO)C(=O)N[C@@H](CO)C(=O)N[C@@H](CCCCN)C(=O)N[C@@H](Cc1c[nH]c2ccccc12)C(=O)N3 [AzK-KIIIA]
hNaV1.4 [1]
  recovery of sodium current at end of washout, hNaV1.4: ~40%
hNaV1.4 [1]; read-out: koff, hNaV1.4, SEM
  koff: 0.00118 s⁻¹
hNaV1.4 [1]; read-out: kon, hNaV1.4
  kon: 39700 M⁻¹ s⁻¹
hNaV1.7 [2]
  recovery of sodium current at end of washout, hNaV1.7: 12.6 ± 1.2%
hNaV1.7 [2]; read-out: koff, hNaV1.7, SEM
  koff: 0.000392 s⁻¹
hNaV1.7 [2]; read-out: kon, hNaV1.7
  kon: 16200 M⁻¹ s⁻¹
hNaV1.4 [3]
  IC50 relative to 1, hNaV1.4: 3.6× ↑
  IC50: 32 ± 10 nM
hNaV1.7 [4]
  IC50: 96 ± 41 nM

## N=C(N)NCCC[C@@H]1NC(=O)[C@H](CO)NC(=O)[C@H](Cc2c[nH]cn2)NC(=O)[C@H](CC(=O)O)NC(=O)[C@H](CCCNC(=N)N)NC(=O)[C@@H]2CSSC[C@@H]3NC(=O)[C@@H](NC(=O)[C@@H](N)CCCCn4cc(C[C@H](N)C(=O)NCCOCCOCCOCCOCCC(=O)NCCOCCOCCOCCOCCC(=O)NCCOCCOCCOCCOCCC(=O)NCCOCCOCCOCCOCCC(=O)NN)nn4)CSSC[C@H](NC1=O)C(=O)N[C@H](C(N)=O)CSSC[C@H](NC(=O)[C@H](CC(N)=O)NC3=O)C(=O)N[C@@H](CO)C(=O)N[C@@H](CO)C(=O)N[C@@H](CCCCN)C(=O)N[C@@H](Cc1c[nH]c3ccccc13)C(=O)N2 [[K-KIIIA]-[PEG80]]
hNaV1.4 [3]
  IC50 relative to 1, hNaV1.4: 16.0× ↑
  IC50: 144 ± 46 nM

## N=C(N)NCCC[C@@H]1NC(=O)[C@H](CO)NC(=O)[C@H](Cc2c[nH]cn2)NC(=O)[C@H](CC(=O)O)NC(=O)[C@H](CCCNC(=N)N)NC(=O)[C@@H]2CSSC[C@@H]3NC(=O)[C@@H](N)CSSC[C@@H](C(N)=O)NC(=O)[C@H](CSSC[C@H](NC(=O)[C@H](CC(N)=O)NC3=O)C(=O)N[C@@H](CO)C(=O)N[C@@H](CO)C(=O)N[C@@H](CCCCN)C(=O)N[C@@H](Cc3c[nH]c4ccccc34)C(=O)N2)NC1=O [µ-KIIIA-ox-p2]
hNaV1.7 [4]
  IC50: 154 ± 15 nM

## N=C(N)NCCC[C@@H]1NC(=O)[C@H](CO)NC(=O)[C@H](Cc2c[nH]cn2)NC(=O)[C@H](CC(=O)O)NC(=O)[C@H](CCCNC(=N)N)NC(=O)[C@@H]2CSSC[C@@H]3NC(=O)[C@@H](N)CSSC[C@H](NC1=O)C(=O)N[C@H](C(N)=O)CSSC[C@H](NC(=O)[C@H](CC(N)=O)NC3=O)C(=O)N[C@@H](CO)C(=O)N[C@@H](CO)C(=O)N[C@@H](CCCCN)C(=O)N[C@@H](Cc1c[nH]c3ccccc13)C(=O)N2 [μ-KIIIA, μ-conotoxin KIIIA]
hNaV1.7 [4]
  IC50: 132 ± 37 nM

## E1G, E4G, Y33W huwentoxin-IV [m3-HwTx-IV]
hNaV1.4 [5]; SEM
  IC50: 369 ± 196 nM
hNaV1.4 [5]; read-out: IC50 (nM ± SEM), hNaV1.4
  IC50: 370 nM
hNaV1.7 [6]
  IC50: 0.4 ± 0.1 nM

## μ-theraphotoxin-Hs2a [HwTx-IV]
rNaV1.4
  IC50: 400 nM
